Experimental data as given in patent US20110105417A1, “Drug Conjugates” (The Curators of the University of Missouri, priority 2008, published 2011).

Experiments:
MDCK-WT cells = assay: Non-radioactive uptake study of B-10HD-ACV on MDCK-WT cells; assay type: in vitro ADME, dog; settings: 200 μM; for Average uptake: DPBS pH 5.4, 90 minutes; for Relative fold uptake: relative to acyclovir
Description: Non-radioactive uptake studies were performed for the above prodrugs on MDCK-WT cells after growing them for 7 days. The medium was aspirated and the cells were washed 3 times after an interval of 5 minutes each with DPBS pH 5.4. […] Uptake was carried out for 90 minutes. Uptake was terminated using ice cold DPBS pH 5.4. The cells were then washed 2 times using distilled deionized water and lysed overnight at −80° C. with 500 uL of distilled deionized water in each well. The samples were analyzed using LC-MS/MS.

Caco-2 cells monolayer = assay: Non-radioactive cellular uptake study, Caco-2; settings: 90 minutes (FIG. 4)
[1] = tested on: MDCK-MDR1 cell monolayers
Description: The medium was changed everyday after reaching confluence.
The experiments were carried out for 90 minutes.

MDCK-MDR1 cell monolayer = assay: Non-radioactive cellular uptake study, MDCK-MDR1; settings: pH 5.5, 90 minutes (FIG. 2)

Structure (SMILES) | Average uptake (MDCK-WT cells) | Relative fold uptake (MDCK-WT cells) | increase of uptake compared to ACV (Caco-2 cells monolayer) | increase of uptake compared to ACV (MDCK-MDR1 cell monolayer) | also measured
Nc1nc2c(ncn2COCCOC(=O)CCCCCCCCCO)c(=O)[nH]1 [10HD-ACV, 2-((2-amino-6-oxo-1,6-dihydropurin-9-yl)methoxy)ethyl 10-hydroxy decanoate] | 199.74 pmoles/mg protein/min | 43.73 |  |  | 
Nc1nc2c(ncn2COCCO)c(=O)[nH]1 [ACV, 9-(2-hydroxyethoxymethyl)guanine, reference compound] | 4.56 pmoles/mg protein/min | 1 |  |  | 
CCCCCCC(CCCCCCCCCCC(=O)OCCOCn1cnc2c(=O)[nH]c(N)nc21)OC(=O)CCCC[C@@H]1SC[C@@H]2NC(=O)N[C@@H]21 (stereo partly drawn) [B-12HS-ACV, Biotin-12-Hydroxystearicacid-ACV] |  |  | 8.3 times |  | 
Nc1nc2c(ncn2COCCOC(=O)CCCC[C@@H]2SC[C@@H]3NC(=O)N[C@@H]32)c(=O)[nH]1 [B-ACV, Biotin-ACV] |  |  |  |  | uptake in the presence of biotin versus in its absence [1]: significantly lesser
CCCCCC[C@H](C/C=C\CCCCCCCC(=O)OCCOCn1cnc2c(=O)[nH]c(N)nc21)OC(=O)CCCC[C@@H]1SC[C@@H]2NC(=O)N[C@@H]21 [B-R-ACV, Biotin-Ricinoleic acid-Acyclovir] |  |  |  | 9.5 times | 
CCCCCC[C@@H](O)C/C=C\CCCCCCCC(=O)OCCOCn1cnc2c(=O)[nH]c(N)nc21 [R-ACV, Ricinoleicacid-ACV] |  |  | 1.4 times | four | 
